Drawing on PubChem BioAssay (NCI), this text covers TGI and GI50 for twelve compounds.

Some test systems named below: DU-145 prostate; HCT-116 colon; OVCAR-4 ovarian; OVCAR-8 ovarian; PC-3 prostate; RXF 393 renal; SK-MEL-2 melanoma; SN12C renal; SW-620 colon; UACC-257 melanoma.
Common to all, as to assay: NCI tumour cell line growth inhibition, 48 h

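In this assay, cells in 96-well plates receive the compound at five concentrations for 48 hours. Endpoints are linearly interpolated between the surrounding concentrations. GI50: concentration for 50% inhibition of growth. TGI denotes the concentration required for complete inhibition of growth.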

Consider `Nc1ccc(-c2nc3ccccc3s2)cc1C(F)(F)F`, for which the TGI in the experiment on DU-145 prostate stood at 29.2 µM; in the experiment with HCT-116 colon it was 26.1 µM; in the experiment on OVCAR-4 ovarian it was 32.9 µM; in the experiment on OVCAR-8 ovarian it was 43.1 µM; with PC-3 prostate, 29.1 µM; with RXF 393 renal it was 21.9 µM. For the same compound, the TGI is 31.3 µM with SK-MEL-2 melanoma, 27.3 µM with SN12C renal, 35.3 µM in the experiment on SW-620 colon and 29 µM in the experiment on UACC-257 melanoma. In addition, the GI50 in the experiment with OVCAR-4 ovarian was 15.9 µM.
With `Cc1cn(-c2cc(C(=O)Nc3cccc(-n4ccc5c(NC(=O)c6ccccc6)nccc54)c3)cc(C(F)(F)F)c2)cn1`, the GI50 is 0.525 µM with DU-145 prostate; 0.291 µM in the experiment with HCT-116 colon; 1.17 µM in the experiment with OVCAR-4 ovarian; 0.419 µM in the experiment with OVCAR-8 ovarian; 0.393 µM in the experiment on PC-3 prostate; 0.202 µM in the experiment on RXF 393 renal. The GI50 with SK-MEL-2 melanoma was 0.342 µM; in the experiment on SN12C renal, 1.04 µM; in the experiment on SW-620 colon it was 0.39 µM; with UACC-257 melanoma, 0.51 µM. Further, the TGI in the experiment on DU-145 prostate was found to be 2.2 µM; in the experiment with HCT-116 colon it was 1.35 µM; in the experiment with OVCAR-4 ovarian, 18 µM; with OVCAR-8 ovarian, 2.99 µM; in the experiment on PC-3 prostate it was 15.6 µM; in the experiment with RXF 393 renal, 0.535 µM. Further, the TGI amounted to 11.9 µM with SK-MEL-2 melanoma, 17.1 µM with SN12C renal, 1.78 µM with SW-620 colon and 19.7 µM in the experiment with UACC-257 melanoma.
Take `NC(CC1=CS(=O)(=O)c2ccc(Cl)cc21)C(=O)O` (stereo unspecified): the TGI with DU-145 prostate, in the experiment with HCT-116 colon, in the experiment on OVCAR-4 ovarian, in the experiment with OVCAR-8 ovarian, with PC-3 prostate and in the experiment on RXF 393 renal was above 100 µM in each case. For the same compound, the TGI with SK-MEL-2 melanoma, in the experiment on SN12C renal, with SW-620 colon and in the experiment on UACC-257 melanoma was above 100 µM throughout.
In the case of `O=C1NCC(NC(=O)C(F)(F)F)c2c(Br)sc(Br)c21` (stereo unspecified), the TGI in the experiment with DU-145 prostate, with HCT-116 colon, with OVCAR-4 ovarian, in the experiment on OVCAR-8 ovarian, in the experiment with PC-3 prostate and in the experiment with RXF 393 renal was above 100 µM each time. For the same compound, the TGI in the experiment on SK-MEL-2 melanoma, in the experiment with SN12C renal, in the experiment on SW-620 colon and with UACC-257 melanoma was above 100 µM in each case.
Consider `c1csc(-c2ccc(-c3cccs3)c3nsnc23)c1`, for which the TGI with DU-145 prostate is above 70.6 µM; in the experiment with HCT-116 colon it was above 100 µM; in the experiment with OVCAR-4 ovarian, above 100 µM; in the experiment on OVCAR-8 ovarian, above 93.2 µM; in the experiment with PC-3 prostate, above 100 µM; in the experiment with RXF 393 renal it was above 64.7 µM. Further, the TGI in the experiment on SK-MEL-2 melanoma is above 100 µM; with SN12C renal, above 100 µM; in the experiment on SW-620 colon, above 50 µM; with UACC-257 melanoma, above 100 µM.
As to `C[C@]12CC[C@@H]3c4ccc(O)cc4CC[C@H]3[C@@H]1C/C(=C\c1ccncc1)[C@@H]2O`, the TGI with DU-145 prostate is above 100 µM; with HCT-116 colon, above 100 µM; in the experiment on OVCAR-4 ovarian, above 100 µM; in the experiment on OVCAR-8 ovarian it was 31.7 µM; with PC-3 prostate, 76.2 µM; in the experiment with RXF 393 renal, 7.73 µM. Further, the TGI is 37.4 µM in the experiment on SK-MEL-2 melanoma, above 100 µM in the experiment with SN12C renal, above 100 µM in the experiment with SW-620 colon and above 100 µM in the experiment with UACC-257 melanoma.
In the case of `Oc1[nH]c2ccc(Br)cc2c1N=NC(=S)Nc1ccc(F)cc1`, the TGI with DU-145 prostate worked out at 22.3 µM; in the experiment on HCT-116 colon, 18 µM; in the experiment with OVCAR-4 ovarian, 25.7 µM; in the experiment on OVCAR-8 ovarian, 19.9 µM; in the experiment with PC-3 prostate, 39.1 µM; in the experiment with RXF 393 renal, 13.2 µM. For the same compound, the TGI in the experiment with SK-MEL-2 melanoma was 25.9 µM; in the experiment on SN12C renal, above 100 µM; in the experiment with SW-620 colon, 40.2 µM; in the experiment with UACC-257 melanoma, 43 µM.
On to `O=C1CC(C(O)(C(F)(F)F)C(F)(F)Cl)CCC1C(O)(C(F)(F)F)C(F)(F)Cl` (stereo unspecified), for which the TGI in the experiment on DU-145 prostate, in the experiment with HCT-116 colon, in the experiment on OVCAR-4 ovarian, with OVCAR-8 ovarian, with PC-3 prostate and in the experiment on RXF 393 renal was above 10 µM throughout. The TGI with SK-MEL-2 melanoma, with SN12C renal, with SW-620 colon and in the experiment with UACC-257 melanoma was above 10 µM throughout.
As to `C(=Nc1ccc(-c2nc3ccccc3o2)cc1)c1ccco1`, the TGI with DU-145 prostate, in the experiment with HCT-116 colon, in the experiment with OVCAR-4 ovarian, with OVCAR-8 ovarian, in the experiment with PC-3 prostate and in the experiment with RXF 393 renal was above 100 µM in each case. In addition, the TGI in the experiment with SK-MEL-2 melanoma, in the experiment on SN12C renal, in the experiment on SW-620 colon and with UACC-257 melanoma was above 100 µM throughout.
In the case of `C[C@@H]1S[C@H](c2ccccc2F)N2Cc3ccccc3N=C12`, the TGI was above 100 µM with DU-145 prostate; 42.2 µM in the experiment on HCT-116 colon; 85.4 µM in the experiment with OVCAR-4 ovarian; above 100 µM with OVCAR-8 ovarian; 97.1 µM with PC-3 prostate; 83.9 µM in the experiment with RXF 393 renal. Moreover, the TGI in the experiment with SK-MEL-2 melanoma was 34.7 µM; in the experiment on SN12C renal it was 42.2 µM; in the experiment with SW-620 colon, above 100 µM; with UACC-257 melanoma, 85.7 µM.
With `COc1cc2nc(-c3cccs3)oc(=O)c2cc1OC`, the TGI in the experiment with DU-145 prostate, in the experiment on HCT-116 colon, with OVCAR-4 ovarian, in the experiment with OVCAR-8 ovarian, with PC-3 prostate and in the experiment on RXF 393 renal was above 100 µM in each case. Also, the TGI in the experiment on SK-MEL-2 melanoma, in the experiment with SN12C renal, with SW-620 colon and in the experiment on UACC-257 melanoma was above 100 µM throughout.
For `COC(=O)c1cc2c(cc1CC1Cc3cc4c(cc3C1)CCC4)CCC2`, the TGI in the experiment on DU-145 prostate, in the experiment on HCT-116 colon, with OVCAR-4 ovarian, in the experiment on OVCAR-8 ovarian, with PC-3 prostate and in the experiment on RXF 393 renal was above 100 µM throughout. The TGI in the experiment with SK-MEL-2 melanoma was 54 µM; with SN12C renal, above 100 µM; with SW-620 colon it was above 100 µM; with UACC-257 melanoma it was 80.9 µM.
